Source: patent publication US5610140A, “Bradykinin receptor antagonists with neurokinin receptor blocking activity” (priority 1994, dated 1997)
Entries after “also recorded” stand apart in the source; their conditions may differ. Read-outs that look alike come from different tables or passages of the source. Each block holds one compound with its values, some of them ahead of it. Square brackets hold non-standard residues; d marks the D form. Peptide text beside a SMILES is read from it. * marks the point of attachment. X5 = C[C@@H](O)[C@H](NC(=O)CCCN1C(=O)CC(*)C1=O)C(=O)N[C@H](Cc1cn(C=O)c2ccccc12)C(=O)N[C@@H](Cc1ccccc1)C(=O)N(C)Cc1ccccc1; Hyp = O=C(O)[C@@H]1C[C@@H](O)CN1

How the values were obtained:
[1] = In vitro stability in human plasma; type: in vitro ADME
Method: (§1) Plasma samples were prepared by collection of whole blood from healthy male and female human volunteers or guinea pigs. Samples were collected into culture tubes containing sodium heparin, and were then spun at 4° C. at 2000 rpm for ten minutes. Supernatant fractions were removed by aspiration and stored in vials at -20° C. Rat or porcine lung and kidney cortical membranes were prepared using differential centrifugation. Membrane preparations were stored at -20° C. The test compound was diluted to 1 mM concentration in PBS (0.0132 M phosphate, 0.1454 M NaCl, pH 7.2). Ten microliters of this working solution were delivered into a series of Eppendorf tubes, followed by human or guinea pig plasma (90 uL) or PBS as a control blank, and incubated for various time periods. […] Supernatant fractions were removed, filtered through 0.22 uM filters (Millipore) and analyzed by HPLC (C18, 12-80% acetonitrile in water, both containing 0.1% trifluoroacetic acid, monitoring at 214 nm.
(§2) Porcine kidney preparations were diluted 1:10 with PBS; rat kidney preparations were diluted 1:100 with PBS. […] At various time points the reactions were quenched by the addition of 100 uL of ethanol, centrifuged and analyzed by HPLC as described above. The half-life for the disappearance of the HPLC peak was determined using the computer program ENZFIT (Elsevier). […]

[2] = In vitro stability in rat kidney cortical membranes; type: in vitro ADME; settings: Rat Kidney membrane preparation diluted 1:100 with PBS
Method: as §1, §2

[3] = In vitro stability in porcine kidney cortical membranes; type: in vitro ADME; settings: Pig Kidney membrane preparation diluted 1:10 with PBS
Method: as §1, §2

[4] = target: T1, Neurokinin 1 (NK1) receptor (Cavia porcellus, UniProt P30547); settings: for NK1 pA2: agonist substance P-O-methyl ester
[5] = target: T1, Neurokinin 1 (NK1) receptor; test: cell-based
Water solubility = type: physicochemical; settings: in the absence of organic co-solvents
NK1 receptors = NK1 receptors (Homo sapiens, UniProt P25103); settings: more potent than FK888; cited from earlier work
[6] = target: T2, Bradykinin 2 (BK2) receptor (Rattus norvegicus, UniProt P25023)
T2 sequence (P25023 1-396): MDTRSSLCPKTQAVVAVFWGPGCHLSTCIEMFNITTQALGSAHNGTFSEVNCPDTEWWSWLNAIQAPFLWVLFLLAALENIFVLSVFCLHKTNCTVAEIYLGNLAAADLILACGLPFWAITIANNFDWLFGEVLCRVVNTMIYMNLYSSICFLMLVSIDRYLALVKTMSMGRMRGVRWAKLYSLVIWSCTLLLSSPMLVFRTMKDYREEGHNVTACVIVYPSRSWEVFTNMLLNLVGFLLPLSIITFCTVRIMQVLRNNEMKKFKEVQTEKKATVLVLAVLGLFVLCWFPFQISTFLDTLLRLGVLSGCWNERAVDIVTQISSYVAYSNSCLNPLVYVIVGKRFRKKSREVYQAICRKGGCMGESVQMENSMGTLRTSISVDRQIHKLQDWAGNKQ

[7] = target: T2, Bradykinin 2 (BK2) receptor; test: cell-based
[8] = as reported in the literature; cited from earlier work
[9] = target: T3, isolated guinea pig lung membrane (Cavia porcellus, UniProt P30547); settings: read-out: binding constant; cited from earlier work
T3 construct: host or cells: guinea pig lung membrane

[10] = cited from earlier work
[11] = guinea pig ileum, recovery of agonist response after wash-off

T1 sequence (P30547 whole entry): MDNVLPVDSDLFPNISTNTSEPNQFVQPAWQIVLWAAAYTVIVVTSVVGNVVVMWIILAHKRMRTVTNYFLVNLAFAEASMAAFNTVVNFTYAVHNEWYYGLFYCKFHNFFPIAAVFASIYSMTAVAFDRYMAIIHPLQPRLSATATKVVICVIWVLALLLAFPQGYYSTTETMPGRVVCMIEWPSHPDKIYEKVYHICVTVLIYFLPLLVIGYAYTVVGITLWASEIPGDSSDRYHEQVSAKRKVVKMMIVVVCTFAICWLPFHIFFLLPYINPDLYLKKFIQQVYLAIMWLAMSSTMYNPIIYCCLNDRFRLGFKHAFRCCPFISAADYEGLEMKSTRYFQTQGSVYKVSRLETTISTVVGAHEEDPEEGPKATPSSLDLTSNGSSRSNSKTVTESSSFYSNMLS
T3 sequence (P30547 whole entry): as above
Sequence of NK1 receptors (P25103 whole entry): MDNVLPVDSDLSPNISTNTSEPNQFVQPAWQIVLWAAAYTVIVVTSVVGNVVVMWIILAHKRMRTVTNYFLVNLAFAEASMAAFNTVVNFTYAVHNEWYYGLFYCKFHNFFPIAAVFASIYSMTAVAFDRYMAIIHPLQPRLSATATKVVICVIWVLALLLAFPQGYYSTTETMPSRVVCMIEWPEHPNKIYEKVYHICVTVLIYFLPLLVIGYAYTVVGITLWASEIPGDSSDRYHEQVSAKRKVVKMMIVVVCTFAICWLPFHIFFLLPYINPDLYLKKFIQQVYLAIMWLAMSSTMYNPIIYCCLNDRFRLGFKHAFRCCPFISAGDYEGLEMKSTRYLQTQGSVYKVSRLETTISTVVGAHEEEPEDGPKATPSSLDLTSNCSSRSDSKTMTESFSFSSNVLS

SMILES: NC(N)=NCCC[C@H](NC(=O)[C@H](Cc1ccccc1)NC(=O)[C@@H]1CCCN1C(=O)[C@H](CO)NC(=O)[C@H](Cc1ccccc1)NC(=O)CNC(=O)[C@@H]1CCCN1C(=O)[C@@H]1CCCN1C(=O)[C@@H](N)CCCN=C(N)N)C(=O)O [Bradykinin] (H-RPPGFSPFR-OH)
Half-life [1]: 27 min | Half-life [2]: 7.8 min | Half-life [3]: 3 min

Half-life [1]: 165 min | Half-life [2]: 39.6 min | Half-life [3]: > 360 min
SMILES: CC(C)C[C@H](NC(=O)[C@@H](Cc1ccccc1)NC(=O)[C@H](CSC1CC(=O)N(CCCCCCN2C(=O)CC(SC[C@H](NC(=O)[C@H](Cc3ccccc3)NC(=O)CNC(=O)[C@@H]3C[C@@H](O)CN3C(=O)[C@@H]3CCCN3C(=O)[C@H](CCCNC(=N)N)NC(=O)[C@H](N)CCCNC(=N)N)C(=O)N[C@H](Cc3ccccc3)C(=O)N[C@@H](CC(C)C)C(=O)N[C@@H](CCCNC(=N)N)C(=O)O)C2=O)C1=O)NC(=O)[C@H](Cc1ccccc1)NC(=O)CNC(=O)[C@@H]1C[C@@H](O)CN1C(=O)[C@@H]1CCCN1C(=O)[C@H](CCCNC(=N)N)NC(=O)[C@H](N)CCCNC(=N)N)C(=O)N[C@@H](CCCNC(=N)N)C(=O)O (some centres unmarked) [CP-0127] (HELM PEPTIDE1{[dR].R.P.[Hyp].G.F.C.[dF].L.R}|PEPTIDE2{[dR].R.P.[Hyp].G.F.C.[dF].L.R}|CHEM1{[O=C1CC([*:1])C(=O)N1CCCCCCN1C(=O)CC([*:2])C1=O]}$PEPTIDE1,CHEM1,7:R3-1:R1|PEPTIDE2,CHEM1,7:R3-1:R2$$$V2.0)

SMILES: C[C@@H](O)[C@H](NC(=O)CCCCCN1C(=O)CC(SCCO)C1=O)C(=O)N[C@H](Cc1cn(C=O)c2ccccc12)C(=O)N[C@@H](Cc1ccccc1)C(=O)N(C)Cc1ccccc1 (some centres unmarked) [CP-0528]
NK1 % recovery (wash-off) [4]: 80% | Kb [5]: 316 nM

SMILES: C[C@@H](O)[C@H](NC(=O)CCCN1C(=O)CC(SCCO)C1=O)C(=O)N[C@H](Cc1cn(C=O)c2ccccc12)C(=O)N[C@@H](Cc1ccccc1)C(=O)N(C)Cc1ccccc1 (some centres unmarked) [CP-0529]
NK1 % recovery (wash-off) [4]: 55% | Kb [5]: 126 nM

NK1 pA2 ([4]; guinea pig ileum): 6.3 | NK1 % recovery (wash-off) [4, 11]: 73%
SMILES: CN(Cc1ccccc1)C(=O)[C@H](Cc1ccccc1)NC(=O)[C@H](CCCCN)NC(=O)c1c[nH]c2ccccc12 [CP-0533]
water solubility (Water solubility): poor solubility in water; also recorded: minimal water solubility

water solubility (Water solubility): poor water solubility | NK1 pA2 ([4]; guinea pig ileum): 7.5 | NK1 % recovery (wash-off) [4, 11]: 41%
SMILES: CN(Cc1ccccc1)C(=O)[C@H](Cc1ccc2ccccc2c1)NC(=O)[C@H](CCCCN)NC(=O)c1c[nH]c2ccccc12 [CP-0535]

SMILES: COc1ccccc1CN[C@H]1CCCN[C@H]1c1ccccc1 [CP-99994]
potency relative to FK888 in binding studies (NK1 receptors): 10 times

SMILES: CC(C)C[C@H](NC(=O)[C@@H](Cc1ccccc1)NC(=O)[C@H](CSC1CC(=O)N(CCCC(=O)N[C@H](C(=O)N[C@H](Cc2cn(C=O)c3ccccc23)C(=O)N[C@@H](Cc2ccccc2)C(=O)N(C)Cc2ccccc2)[C@@H](C)O)C1=O)NC(=O)[C@H](Cc1ccccc1)NC(=O)CNC(=O)[C@@H]1C[C@@H](O)CN1C(=O)[C@@H]1CCCN1C(=O)[C@H](CCCNC(=N)N)NC(=O)[C@H](N)CCCNC(=N)N)C(=O)N[C@@H](CCCNC(=N)N)C(=O)O (some centres unmarked) [Compound 2] (H-[dR]RP[Hyp]GFC(X5)[dF]LR-OH)
NK1 % recovery (wash-off) [4]: 48% | BK2 % Recovery (wash-off) [6]: 20% | Kb [5]: 126 nM | Kb [7]: 6.31 nM

SMILES: CN(Cc1ccccc1)C(=O)[C@H](Cc1ccc2ccccc2c1)NC(=O)[C@@H]1C[C@@H](O)CN1C(=O)c1cn(C)c2ccccc12 [FK888]
water solubility [8]: poor water solubility

SMILES: CC(=O)N[C@H](C(=O)N[C@H](Cc1c[nH]c2ccccc12)C(=O)N[C@@H](Cc1ccccc1)C(=O)N(C)Cc1ccccc1)[C@@H](C)O [FR113680, Ac-Thr-D-Trp-Phe-N(CH3)Bn, reference compound]
NK1 % recovery (wash-off) [4]: 53% | Ki [9]: 5.8 nM | Kb [5]: 100 nM | in vivo stability [10]: moderate in vivo stability
